Experimental data published in patent US20230348418A1, “ISOINDOLINONE COMPOUNDS” (Monte Rosa Therapeutics, Inc., priority 2021, published 2023).
Read-outs that look alike come from different tables or passages of the source.

Target: T1, Full length wild-type cereblon CRBN (Homo sapiens, UniProt Q96SW2)
T1 construct: Full length wild-type cereblon CRBN (80.0 nM, 10 μL) was incubated in assay buffer
Assay: Fluorescence polarization (FP) assay, cereblon binding
From the text: Compound activity was monitored in a fluorescence polarization (FP) homogeneous assay using 1-[5-({2-[2-(2-{[2-(2,6-dioxopiperidin-3-yl)-1,3-dioxo-2,3-dihydro-1H-isoindol-4-yl]oxy}acetamido)ethoxy]ethyl}carbamoyl)pentyl]-3,3-dimethyl-2-[(1E,3E)-5-[(2E)-1,3,3-trimethyl-5-sulfo-2,3-dihydro-1H-indol-2-ylidene]penta-1,3-dien-1-yl]-3H-indol-1-ium-5-sulfonate as a fluorescent probe. Unless otherwise stated, all reagents were purchased from Sigma Aldrich. […] Full length wild-type cereblon CRBN (80.0 nM, 10 μL) was incubated in assay buffer containing 20 mM HEPES (pH 8.0), […], 0.5 mM TCEP and 0.05% Tween 20 in the presence or absence of compound (300 nL). Inhibitors were stored as 10 mM DMSO stocks in an inert environment (low humidity, dark, low oxygen, room temperature) using the Storage Pod System. […] Following incubation at room temperature for 30 min, the assay was initiated by dispensing the probe to a final concentration of […] (2.5 nL of a 20 μM stock) using the Echo E5XX. […] The FP signal was subsequently normalized to the no-compound control (i.e., DMSO). Analysis and IC50 values were derived using Dotmatics (Dotmatics UK) software.

[1] = bounds stated in the text lists b2059-b2061, read-out: IC50 value
[2] = cereblon binding, class code, read-out: rFP IC50

T1 sequence (Q96SW2 whole entry): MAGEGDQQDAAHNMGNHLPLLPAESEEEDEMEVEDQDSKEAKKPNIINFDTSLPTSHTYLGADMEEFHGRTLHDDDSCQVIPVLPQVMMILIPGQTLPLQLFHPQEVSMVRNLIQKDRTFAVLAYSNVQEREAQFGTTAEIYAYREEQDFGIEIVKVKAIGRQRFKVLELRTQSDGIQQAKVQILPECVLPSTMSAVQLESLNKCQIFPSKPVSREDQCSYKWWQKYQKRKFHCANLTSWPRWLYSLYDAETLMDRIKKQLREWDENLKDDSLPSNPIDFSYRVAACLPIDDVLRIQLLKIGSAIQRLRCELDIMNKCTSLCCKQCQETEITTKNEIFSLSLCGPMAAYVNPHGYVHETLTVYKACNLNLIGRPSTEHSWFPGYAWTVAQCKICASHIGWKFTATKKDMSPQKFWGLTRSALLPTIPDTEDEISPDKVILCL

| SMILES | IC50 [1] | IC50 [2] |
| --- | --- | --- |
| Cc1c(Cl)cc(NC(=O)OCc2ccc3c(c2)C(=O)N(C2CCC(=O)NC2=O)C3)cc1CN1CCOCC1 (stereo not drawn) [Compound 2] | < 1700 nM | 500 to 1100 nM |
| O=C1CCC(N2Cc3ccc(COC(=O)Nc4cc(CN5CCOCC5)cc(OC(F)(F)F)c4)cc3C2=O)C(=O)N1 (stereo not drawn) [Compound 4] | < 1700 nM | 500 to 1100 nM |
| O=C1CCC(N2Cc3ccc(COC(=O)Nc4cccc(OC(F)F)c4)cc3C2=O)C(=O)N1 (stereo not drawn) [Compound 5] | < 1700 nM | 1100 to 1700 nM |
| Cc1cc(NC(=O)OCc2ccc3c(c2)C(=O)N(C2CCC(=O)NC2=O)C3)cc(C)n1 (stereo not drawn) [Compound 7] | < 1700 nM | 500 to 1100 nM |
| O=C1CCC(N2Cc3ccc(COC(=O)Nc4ccc(F)c(Cl)c4)cc3C2=O)C(=O)N1 (stereo not drawn) [Compound 9] | < 1700 nM | 1100 to 1700 nM |
| COc1ccc(Cl)cc1NC(=O)OCc1ccc2c(c1)C(=O)N(C1CCC(=O)NC1=O)C2 (stereo not drawn) [Compound 14] | < 1700 nM | 1100 to 1700 nM |
| O=C1CCC(N2Cc3ccc(COC(=O)Nc4cc(Cl)cc(OCC5CCNC5)c4)cc3C2=O)C(=O)N1 (stereo not drawn) [Compound 16] | < 1100 nM | – |
| O=C1CCC(N2Cc3ccc(COC(=O)Nc4ccc5c(c4)OCC5)cc3C2=O)C(=O)N1 (stereo not drawn) [Compound 18] | < 1700 nM | 500 to 1100 nM |
| O=C1CCC(N2Cc3ccc(COC(=O)Nc4cc(Cl)cc(OC5CCNC5)c4)cc3C2=O)C(=O)N1 (stereo not drawn) [Compound 20] | < 1700 nM | 1100 to 1700 nM |
| O=C1CCC(N2Cc3ccc(COC(=O)N4CCCCC4)cc3C2=O)C(=O)N1 (stereo not drawn) [Compound 23] | < 1100 nM | – |
| Cc1c(CN2CCOCC2)cc(NC(=O)OCc2ccc3c(c2)C(=O)N(C2CCC(=O)NC2=O)C3)cc1OC(F)F (stereo not drawn) [Compound 25] | < 1700 nM | 500 to 1100 nM |
| O=C1CCC(N2Cc3ccc(COC(=O)N4CCC(Oc5ccccc5)C4)cc3C2=O)C(=O)N1 (stereo not drawn) [Compound 30] | < 1100 nM | – |
| CCOc1cc(NC(=O)OCc2ccc3c(c2)C(=O)N(C2CCC(=O)NC2=O)C3)ccc1C (stereo not drawn) [Compound 33] | < 500 nM | 500 to 1100 nM |
| O=C1CCC(N2Cc3ccc(COC(=O)N4CCN(c5ccccc5)CC4)cc3C2=O)C(=O)N1 (stereo not drawn) [Compound 36] | < 1100 nM | – |
| COc1cc(Cl)ccc1NC(=O)OCc1ccc2c(c1)C(=O)N(C1CCC(=O)NC1=O)C2 (stereo not drawn) [Compound 38] | < 1700 nM | 500 to 1100 nM |
| O=C1CCC(N2Cc3ccc(COC(=O)Nc4ccc(C5CC5)cc4)cc3C2=O)C(=O)N1 (stereo not drawn) [Compound 39] | < 1700 nM | 500 to 1100 nM |
| Cc1c(F)cc(NC(=O)OCc2ccc3c(c2)C(=O)N(C2CCC(=O)NC2=O)C3)cc1CN1CCOCC1 (stereo not drawn) [Compound 41] | < 1700 nM | 500 to 1100 nM |
| CN1CCC(Oc2cc(Cl)cc(NC(=O)OCc3ccc4c(c3)C(=O)N(C3CCC(=O)NC3=O)C4)c2)C1 (stereo not drawn) [Compound 46] | < 1100 nM | – |
| COc1cc(NC(=O)OCc2ccc3c(c2)C(=O)N(C2CCC(=O)NC2=O)C3)cnc1C (stereo not drawn) [Compound 51] | < 1700 nM | 500 to 1100 nM |
| O=C1CCC(N2Cc3ccc(COC(=O)Nc4cnc5c(c4)CCC5)cc3C2=O)C(=O)N1 (stereo not drawn) [Compound 53] | < 1700 nM | 500 to 1100 nM |
| O=C1CCC(N2Cc3ccc(COC(=O)Nc4ccc5c(c4)CCC5)cc3C2=O)C(=O)N1 (stereo not drawn) [Compound 56] | < 1700 nM | 1100 to 1700 nM |
| CC1(c2ccc(NC(=O)OCc3ccc4c(c3)C(=O)N(C3CCC(=O)NC3=O)C4)cc2)CC1 (stereo not drawn) [Compound 58] | < 1700 nM | 500 to 1100 nM |
| O=C1CCC(N2Cc3ccc(COC(=O)Nc4cc(OC(F)(F)F)ccn4)cc3C2=O)C(=O)N1 (stereo not drawn) [Compound 59] | < 1100 nM | – |
| CC1(c2ccc(NC(=O)OCc3ccc4c(c3)C(=O)N(C3CCC(=O)NC3=O)C4)cc2)COC1 (stereo not drawn) [Compound 62] | < 1700 nM | 500 to 1100 nM |
| O=C1CCC(N2Cc3ccc(COC(=O)Nc4ccc(N5CC6CCC(C5)O6)nc4)cc3C2=O)C(=O)N1 (stereo not drawn) [Compound 65] | < 1100 nM | – |
| O=C1CCC(N2Cc3ccc(COC(=O)Nc4ccc5c(c4)CCCO5)cc3C2=O)C(=O)N1 (stereo not drawn) [Compound 67] | < 1700 nM | 500 to 1100 nM |
| Cc1c(Cl)cc(NC(=O)OCc2ccc3c(c2)C(=O)N(C2CCC(=O)NC2=O)C3)cc1OC1CCN(C)C1 (stereo not drawn) [Compound 68] | < 1700 nM | 500 to 1100 nM |
| Cc1c(Cl)cc(NC(=O)OCc2ccc3c(c2)C(=O)N(C2CCC(=O)NC2=O)C3)cc1OCC1CCN(C)C1 (stereo not drawn) [Compound 70] | < 1100 nM | – |
| CCc1cc(NC(=O)OCc2ccc3c(c2)C(=O)N(C2CCC(=O)NC2=O)C3)cc(C)n1 (stereo not drawn) [Compound 71] | < 1700 nM | 1100 to 1700 nM |

Results, then the molecule that gave them:

| IC50 [1] | IC50 [2] | SMILES |
| --- | --- | --- |
| < 1700 nM | 500 to 1100 nM | Cc1cc(C)cc(NC(=O)OCc2ccc3c(c2)C(=O)N(C2CCC(=O)NC2=O)C3)c1 (stereo not drawn) [Compound 8] |
| < 1700 nM | 1100 to 1700 nM | O=C1CCC(N2Cc3ccc(COC(=O)Nc4cc(F)cc(Cl)c4)cc3C2=O)C(=O)N1 (stereo not drawn) [Compound 12] |
| < 1700 nM | 500 to 1100 nM | Cc1c(Cl)cc(NC(=O)OCc2ccc3c(c2)C(=O)N(C2CCC(=O)NC2=O)C3)cc1CN1CC2CC1CO2 (stereo not drawn) [Compound 13] |
| < 1700 nM | 500 to 1100 nM | Cc1ccc(NC(=O)OCc2ccc3c(c2)C(=O)N(C2CCC(=O)NC2=O)C3)cc1OC(F)F (stereo not drawn) [Compound 24] |
| < 1700 nM | 500 to 1100 nM | O=C1CCC(N2Cc3ccc(COC(=O)N4CCCC4)cc3C2=O)C(=O)N1 (stereo not drawn) [Compound 26] |
| < 1700 nM | 1100 to 1700 nM | O=C1CCC(N2Cc3ccc(COC(=O)NC4CCCCC4)cc3C2=O)C(=O)N1 (stereo not drawn) [Compound 28] |
| < 1700 nM | 500 to 1100 nM | O=C1CCC(N2Cc3ccc(COC(=O)NC4CCCC4)cc3C2=O)C(=O)N1 (stereo not drawn) [Compound 29] |
| < 1100 nM | – | O=C1CCC(N2Cc3ccc(COC(=O)NC4CCN(c5ccccn5)CC4)cc3C2=O)C(=O)N1 (stereo not drawn) [Compound 35] |
| < 1100 nM | – | CN1CCC(COc2cc(Cl)cc(NC(=O)OCc3ccc4c(c3)C(=O)N(C3CCC(=O)NC3=O)C4)c2)C1 (stereo not drawn) [Compound 40] |
| < 1700 nM | 500 to 1100 nM | Cc1c(Cl)cc(NC(=O)OCc2ccc3c(c2)C(=O)N(C2CCC(=O)NC2=O)C3)cc1OC1CCNC1 (stereo not drawn) [Compound 44] |
| < 1700 nM | 500 to 1100 nM | Cc1c(Cl)cc(NC(=O)OCc2ccc3c(c2)C(=O)N(C2CCC(=O)NC2=O)C3)cc1OCC1CCNC1 (stereo not drawn) [Compound 52] |
| < 1100 nM | – | O=C1CCC(N2Cc3ccc(COC(=O)Nc4cnc5c(c4)COCC5)cc3C2=O)C(=O)N1 (stereo not drawn) [Compound 54] |
| < 1700 nM | 500 to 1100 nM | CCc1cc(NC(=O)OCc2ccc3c(c2)C(=O)N(C2CCC(=O)NC2=O)C3)cnc1C (stereo not drawn) [Compound 55] |
| < 1100 nM | – | O=C1CCC(N2Cc3ccc(COC(=O)Nc4ccc(N5CCCC5)nc4)cc3C2=O)C(=O)N1 (stereo not drawn) [Compound 60] |
| < 1100 nM | – | CCc1cc(NC(=O)OCc2ccc3c(c2)C(=O)N(C2CCC(=O)NC2=O)C3)ccn1 (stereo not drawn) [Compound 63] |
| < 1700 nM | 500 to 1100 nM | O=C1CCC(N2Cc3ccc(COC(=O)Nc4cnc(N5CCCCC5)nc4)cc3C2=O)C(=O)N1 (stereo not drawn) [Compound 64] |
| < 1100 nM | – | O=C1CCC(N2Cc3ccc(COC(=O)Nc4ccc5c(c4)CCO5)cc3C2=O)C(=O)N1 (stereo not drawn) [Compound 66] |
| < 1100 nM | – | CC1CCN(c2ccc(NC(=O)OCc3ccc4c(c3)C(=O)N(C3CCC(=O)NC3=O)C4)cn2)C1 (stereo not drawn) [Compound 69] |
| < 1700 nM | 500 to 1100 nM | O=C1CCC(N2Cc3ccc(COC(=O)Nc4cnc(N5CCCCC5)c(F)c4)cc3C2=O)C(=O)N1 (stereo not drawn) [Compound 72] |
